The values that follow come from patent US6242601A, “Heterocyclic sulfamides” (Hoffman-La Roche Inc., priority 1999, dated 2001).

The structures appear in SMILES notation.

Data set [1] has as its target T1, recombinant human ETA receptors (Homo sapiens, UniProt P25101).
T1 sequence (P25101 21-427): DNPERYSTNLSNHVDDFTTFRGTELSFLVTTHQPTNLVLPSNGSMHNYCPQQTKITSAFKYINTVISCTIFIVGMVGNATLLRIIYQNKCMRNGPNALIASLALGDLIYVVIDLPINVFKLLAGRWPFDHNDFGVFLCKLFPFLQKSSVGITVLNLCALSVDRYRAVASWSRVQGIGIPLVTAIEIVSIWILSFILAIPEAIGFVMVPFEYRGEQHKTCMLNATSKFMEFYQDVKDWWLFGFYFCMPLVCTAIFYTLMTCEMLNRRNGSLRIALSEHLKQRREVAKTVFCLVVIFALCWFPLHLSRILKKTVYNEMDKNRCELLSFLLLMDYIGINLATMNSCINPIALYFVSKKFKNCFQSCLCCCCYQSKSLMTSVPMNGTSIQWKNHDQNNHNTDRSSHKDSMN
Nature of the data set: Inhibition of endothelin binding on recombinant human ETA receptors expressed in CHO cells ([125I]ET-1, whole attached cells). The conditions noted are these: 35 pM [125I]ET-1, 2 h, 22° C. Also on record: expressed in transfected cells; host or cells: CHO cells. On the procedure:
II. […] Cell culture. CHO cells, expressing recombinant human ETA receptor are grown in Minimal Essential Alpha Medium (Gibco Laboratories, Paisley, Scotland) supplemented with 0.1 μM methotrexate, 5% dialyzed fetal calf serum, 100 U/ml of penicillin and 100 μg/ml of streptomycin. Binding assays with whole attached cells are performed in 500 μl Dulbecco's Eagle medium (DMEM) containing 2 mg/ml bovine serum albumin and 25 mM Hepes. After incubation (2 h, 22° C.) in the presence of 35 pM [^125 I]ET-1 and increasing concentrations of various antagonists, the cells are extensively washed and finally solubilized in 1% (w/v) SDS, 0.5 M NaOH and 100 mM EDTA. Each assay is performed three times in triplicates and non specific binding is assessed in the presence of 100 nM unlabelled ET-1. Specific binding is defined as the difference between total binding and non specific binding. IC50 values are determined after logit/log transformation of the binding data.

The target of data set [2] is T1, recombinant human ETA receptors. Nature of the data set: Inhibition of endothelin binding to recombinant human ETA receptors expressed in baculovirus-infected insect cells (125I-endothelin). The conditions noted are these: 125I-endothelin 20 pM; baculovirus-infected insect cell membranes; 20° C. for 2 hours or 4° C. for 24 hours. How it is done:
I. […] A cDNA coding for human ETA receptors of human placenta was cloned ([…]. Yang, Y. Furuichi and C. Miyamoto, BBRC 180, 1265-1272) and expressed in the Baculovirus-insect cell system. Baculovirus-infected insect cells from a 23 1 fermenter are centrifuged off (3000×g, 15 minutes, 4° C.) 60 hours after the infection, re-suspended in Tris buffer (5 mM, pH 7.4, 1 mM MgCl2) and again centrifuged. After a further re-suspension and centrifugation the cells are suspended in 800 ml of the same buffer and […] at -120° C. The cells disintegrate when the suspension in this hypotonic buffer mixture is thawed. After a repeated […]/thawing cycle the suspension is homogenised and centrifuged (25000×g, 15 minutes, 4° C.). After suspension in Tris buffer (75 mM, pH 7.4, 25 mM MgCl2, 250 mM sucrose) 1 ml aliquots (protein content about 3.5 mg/ml) are stored at -85° C. […] The incubation is carried out at 20° C. for 2 hours or at 4° C. for 24 hours. The separation of free and membrane-bound radio-ligands is carried out by filtration over a glass fibre filter.

Data set [3] in a line: Pharmacokinetics of the endothelin receptor antagonists after oral gavage in rats. It counts as in vivo. Particulars: rat, plasma, 5 mg/kg in DMSO, Wistar rats, bioassay; for AUC: read-out: Area under the plasma concentration time curve; for Cmax: read-out: Peak concentration in rat plasma. How it is done:
IV. […] The test compounds were dissolved in DMSO at a concentration of 5 mg/mL and administered orally by gavage at a dose of 1 mL/kg body weight corresponding to 5 mg/kg body weight. Two rats were administered per test compound. Blood samples were collected from the retro-orbital sinus at 1 and 5 h post dose in one rat, and at 3 and 7 h post dose in the other rat. In addition a terminal 24 h blood sample was collected from both rats by heart puncture. Blood was collected on EDTA-NaF. Plasma was derived by centrifugation at 2000 g at +4° C. for 15 min. Plasma samples were assayed for active drug related material with a bioassay, based on the binding competition of tested compounds and ^125 I ET-1 on recombinant ETA receptors. Quantitation of plasma samples was by comparison to a calibration curve build up from control rat plasma spiked with known concentrations of the test compounds.

In the next data set the target is T2, isolated rat aorta rings (Rattus norvegicus, UniProt P26684).
T2 construct: Rings with a length of 5 mm were cut out from the thorax aorta of adult Wistar-Kyoto rats; from tissue; host or cells: thoracic aorta of adult Wistar-Kyoto rats, endothelium removed
T2 sequence (P26684 21-426): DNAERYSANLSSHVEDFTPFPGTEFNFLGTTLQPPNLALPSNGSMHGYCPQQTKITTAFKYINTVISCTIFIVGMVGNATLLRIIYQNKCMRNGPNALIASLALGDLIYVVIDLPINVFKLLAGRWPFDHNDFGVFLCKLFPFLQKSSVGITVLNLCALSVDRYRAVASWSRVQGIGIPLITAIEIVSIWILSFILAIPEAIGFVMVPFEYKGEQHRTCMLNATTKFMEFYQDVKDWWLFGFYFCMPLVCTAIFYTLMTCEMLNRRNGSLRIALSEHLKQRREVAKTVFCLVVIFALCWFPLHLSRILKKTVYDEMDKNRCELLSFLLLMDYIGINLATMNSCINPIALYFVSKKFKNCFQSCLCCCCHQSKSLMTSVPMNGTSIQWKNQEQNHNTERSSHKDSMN
Nature of the data set: Inhibition of endothelin-induced contractions in isolated rat aorta rings. The conditions noted are these: rat aorta rings without endothelium, 37° C.; endothelin-1 cumulative; from dose ratio; read-out: pA2 (converted). Also on record: species or system adult Wistar-Kyoto rats. How it is done: Rings with a length of 5 mm were cut out from the thorax aorta of adult Wistar-Kyoto rats. The endothelium was removed by lightly rubbing the internal surface. Each ring was immersed at 37° C. in 10 ml of Krebs-Henseleit solution in an isolated bath while gassing with 95% O2 and 5% CO2. The isometric stretching of the rings was measured. The rings were stretched to a pre-tension of 3 g.
The corresponding pA2 value, which is a measure of the activity of the test compound, was calculated using a computer programme according to the following equation from the "dose ratio" DR for each individual dosage-activity curve.
pA2 =log(DR-1)-log(antagonist-concentration)

Usually IC50 stands for the concentration that gives 50% inhibition. As for `COC(=O)COc1cccc(-c2nc(NS(=O)(=O)c3ccc(C)cn3)c(Oc3ccccc3OC)c(OC)n2)c1` [Example 2, {3-[4-methoxy-5-(2-methoxy-phenoxy)-6-(5-methyl-pyridine-2-sulfonylamino)-pyrimidin-2-yl]-phenoxy}-acetic acid methyl ester], the IC50 in data set [1] was at most 10 nM.
As to `C=C(C)c1ccc(S(=O)(=O)Nc2nc(-c3cccc(O)c3)nc(OC)c2Oc2ccccc2OC)nc1` [Example 15, 5-isopropenyl-pyridine-2-sulfonic acid [2-(3-hydroxy-phenyl)-6-methoxy-5-(2-methoxy-phenoxy)-pyrimidin-4-yl]-amide], in data set [2], the IC50 is at most 50 nM.
Regarding `COc1ccccc1Oc1c(NS(=O)(=O)c2ccc(C)cn2)nc(-c2ccnc(C#N)c2)nc1OC` [Example 19, 5-methyl-pyridine-2-sulfonic acid [2-(2-cyano-pyridin-4-yl)-6-methoxy-5-(2-methoxy-phenoxy)-pyrimidin-4-yl]-amide], in data set [1], the IC50 is at most 10 nM. Also, in data set [3], the AUC is at least 10000 ng·h/mL and the Cmax was at least 1500 ng/mL.
With `COC(=O)c1cc(-c2nc(NS(=O)(=O)c3ccc(C)cn3)c(Oc3ccccc3OC)c(OC)n2)ccn1` [Example 22, 4-[4-methoxy-5-(2-methoxy-phenoxy)-6-(5-methyl-pyridine-2-sulfonylamino)-pyrimidin-2-yl]-pyridine-2-carboxylic acid methyl ester], the IC50 in data set [2] was at most 50 nM. For the same molecule, in data set [3], the AUC was at least 10000 ng·h/mL and the Cmax was at least 1500 ng/mL.
As to `COc1ccccc1Oc1c(NS(=O)(=O)c2ccc(C)cn2)nc(-c2ccnc(C(=O)OCCO)c2)nc1OC` [Example 25, 4-[4-methoxy-5-(2-methoxy-phenoxy)-6-(5-methyl-pyridine-2-sulfonylamino)-pyrimidin-2-yl]-pyridine-2-carboxylic acid 2-hydroxy-ethyl ester], in data set [2], the IC50 was at most 50 nM.
Consider `COc1ccccc1Oc1c(NS(=O)(=O)c2ccc(C)cn2)nc(-c2ccnc(CO)c2)nc1OC` [Example 29, 5-methyl-pyridine-2-sulfonic acid [2-(2-hydroxymethyl-pyridin-4-yl)-6-methoxy-5-(2-methoxy-phenoxy)-pyrimidin-4-yl]-amide], for which the IC50 in data set [2] is at most 50 nM; in data set [1], at most 10 nM.
For the molecule `COc1ccccc1Oc1c(NS(=O)(=O)c2ccc(C)cn2)nc(-c2ccnc(CNC(C)=O)c2)nc1OC` [Example 30, N-{4-[4-methoxy-5-(2-methoxy-phenoxy)-6-(5-methyl-pyridine-2-sulfonylamino)-pyrimidin-2-yl]-pyridin-2-ylmethyl}-acetamide], in data set [1], the concentration for half-maximal inhibition (IC50) is at most 10 nM.
For `CCS(=O)(=O)NCc1cc(-c2nc(NS(=O)(=O)c3ccc(C)cn3)c(Oc3ccccc3OC)c(OC)n2)ccn1` [Example 32, 5-methyl-pyridine-2-sulfonic acid [2-[2-(ethanesulfonylamino-methyl)-pyridin-4-yl]-6-methoxy-5-(2-methoxy-phenoxy)-pyrimidin-4-yl]-amide], in data set [2], the IC50 was at most 50 nM.
Still for that read-out and setting: for `COc1ccccc1Oc1c(NS(=O)(=O)c2ccc(C)cn2)nc(-c2ccnc(C(=N)NO)c2)nc1OC` [Example 34, N-hydroxy-4-[4-methoxy-5-(2-methoxy-phenoxy)-6-(5-methyl-pyridine-2-sulfonylamino)-pyrimidin-2-yl]-pyridine-2-carboxamidine] the value was at most 50 nM.
As for `COc1ccccc1Oc1c(NS(=O)(=O)c2ccc(C)cn2)nc(-c2ccnc(OCCO)c2)nc1OC` [Example 36, 5-methyl-pyridine-2-sulfonic acid [2-[2-(2-hydroxy-ethoxy)-pyridin-4-yl]-6-methoxy-5-(2-methoxy-phenoxy)-pyrimidin-4-yl]-amide], in data set [1], the IC50 is at most 10 nM.
For `CCOc1cc(-c2nc(NS(=O)(=O)c3ccc(C)cn3)c(Oc3ccccc3OC)c(OC)n2)ccn1` [Example 38, 5-methyl-pyridine-2-sulfonic acid [2-(2-ethoxy-pyridin-4-yl)-6-methoxy-5-(2-methoxy-phenoxy)-pyrimidin-4-yl]-amide], the half-inhibitory concentration (IC50) in data set [2] was at most 50 nM.
With `COc1ccccc1Oc1c(NS(=O)(=O)c2ccc(C(C)C)cn2)nc(-c2ccnc(CO)c2)nc1OC` [Example 44, 5-isopropyl-pyridine-2-sulfonic acid [2-(2-hydroxymethyl-pyridin-4-yl)-6-methoxy-5-(2-methoxy-phenoxy)-pyrimidin-4-yl]-amide], at isolated rat aorta rings, the Kb is at most 6.31 nM.
As to `CNC(=O)c1cc(-c2nc(NS(=O)(=O)c3ccc(C(C)C)cn3)c(Oc3ccccc3OC)c(OC)n2)ccn1` [Example 48, 4-[4-(5-isopropyl-pyridine-2-sulfonylamino)-6-methoxy-5-(2-methoxy-phenoxy)-pyrimidin-2-yl]-pyridine-2-carboxylic acid methylamide], the IC50 in data set [2] is at most 50 nM.
For `COc1ccccc1Oc1c(NS(=O)(=O)c2ccc(C(C)C)cn2)nc(-c2ccnc(C(=O)N(C)C)c2)nc1OC` [Example 51, 4-[4-(5-isopropyl-pyridine-2-sulfonylamino)-6-methoxy-5-(2-methoxy-phenoxy)-pyrimidin-2-yl]-pyridine-2-carboxylic acid dimethylamide], the half-inhibitory concentration (IC50) in data set [2] was at most 50 nM.
As for `COc1ccccc1Oc1c(NS(=O)(=O)c2ccc(C(C)C)cn2)nc(-c2ccnc(-c3noc(C)n3)c2)nc1OC` [Example 56, 5-isopropyl-pyridine-2-sulfonic acid {6-methoxy-5-(2-methoxy-phenoxy)-2-[2-(5-methyl-[1,2,4]oxadiazol-3-yl)-pyridin-4-yl]-pyrimidin-4-yl}-amide], the IC50 in data set [2] is at most 50 nM.
In the case of `COc1ccccc1Oc1c(NS(=O)(=O)c2ccc(C(C)C)cn2)nc(-c2ccnc(OCCO)c2)nc1OC` [Example 57, 5-isopropyl-pyridine-2-sulfonic acid [2-[2-(2-hydroxy-ethoxy)-pyridin-4-yl]-6-methoxy-5-(2-methoxy-phenoxy)-pyrimidin-4-yl]-amide], on isolated rat aorta rings, the Kb is at most 6.31 nM.
